Laboratory results from US7491794B2, “Macrocyclic compounds as inhibitors of viral replication” (Intermune, Inc., priority 2003, dated 2009).
Read-outs that look alike come from different tables or passages of the source.

Columns and labels:
[1] = system: HCV sub-genomic replicon, GS4.3; test: Quantitation by ELISA of NPTII in the HCV sub-genomic replicon, GS4.3, Section B; assay type: cell-based; details: Hepatitis C virus, read-out: Replicon EC50
How it was run: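 GS4.3 cells (HuH-7 carrying HCV 1377/NS3-3′ replicon) were treated 72 h at 37 °C with inhibitors in 3-fold dilutions, 1% DMSO, no G418. Lysate NPTII was measured by ELISA (TMB, 450 nm). Signal as % of DMSO control; EC50 from 4-parameter fit.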

NS3-NS4A protease = molecular target: T1, NS3-NS4A protease (Hepatitis C virus genotype 1a, UniProt P27958); test: NS3-NS4A protease assay (NS3 inhibition assay, RETS1 substrate), Section B; assay type: biochemical; details: read-out: NS3-NS4A IC50
T1 construct: Recombinant E. coli or Baculovirus full-length NS3 was diluted to 3.33 μM with assay buffer; made in house; host or cells: E. coli or baculovirus (BV) system
How it was run: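 Full-length NS3 (E. coli or baculovirus) precomplexed with excess NS4A-2 peptide, run at 2 nM (E. coli) or 3 nM (BV) NS3; compounds pre-incubated 10 min at room temperature before RETS1 substrate. Fluorescence (ex 335/em 495 nm) read kinetically 30 min; IC50 from four-parameter fit, converted to Ki via Ki=IC50/(1+[S]/Km).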

T1 sequence (P27958 1027-1657): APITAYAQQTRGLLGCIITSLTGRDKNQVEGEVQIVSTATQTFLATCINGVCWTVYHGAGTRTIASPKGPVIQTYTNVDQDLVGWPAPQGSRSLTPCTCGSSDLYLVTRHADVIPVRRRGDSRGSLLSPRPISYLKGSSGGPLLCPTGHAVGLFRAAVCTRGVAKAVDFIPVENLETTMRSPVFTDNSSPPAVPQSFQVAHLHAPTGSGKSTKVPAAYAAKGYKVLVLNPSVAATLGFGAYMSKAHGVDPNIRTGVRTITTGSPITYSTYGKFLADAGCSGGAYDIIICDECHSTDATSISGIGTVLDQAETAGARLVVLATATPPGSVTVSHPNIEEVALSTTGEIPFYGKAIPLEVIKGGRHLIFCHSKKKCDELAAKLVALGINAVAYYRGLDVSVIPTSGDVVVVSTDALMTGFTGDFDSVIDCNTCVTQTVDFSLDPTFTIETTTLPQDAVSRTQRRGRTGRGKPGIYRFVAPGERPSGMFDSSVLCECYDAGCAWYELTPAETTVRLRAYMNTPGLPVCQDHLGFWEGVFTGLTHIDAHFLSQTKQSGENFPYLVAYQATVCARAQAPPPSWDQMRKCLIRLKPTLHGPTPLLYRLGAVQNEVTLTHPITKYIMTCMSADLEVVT

| Structure (SMILES) | EC50 ([1]; 72 h) [nM] | IC50 (NS3-NS4A protease) [nM] | EC50 ([1]; GS4.3 cells, 72 h incubation) [nM] |
| --- | --- | --- | --- |
| Cc1ccc(S(=O)(=O)NC(=O)[C@@]23C[C@H]2/C=C\CCCCC[C@H](NC(=O)OC(C)(C)C)C(=O)N2C[C@H](OC(=O)N4CCc5ccccc5C4)C[C@H]2C(=O)N3)cc1 [AR00320549, (1S,4R,6S,14S,18R)-3,4-Dihydro-1H-isoquinoline-2-carboxylic acid 14-tert-butoxycarbonylamino-2,15-dioxo-4-(toluene-4-sulfonylaminocarbonyl)-3,16-diaza-tricyclo[14.3.0.0^4,6]nonadec-7-en-18-yl ester] | < 100 | < 100 |  |
| O=C(N[C@H]1CCCCC/C=C\[C@@H]2C[C@@]2(C(=O)NS(=O)(=O)C2CC2)NC(=O)[C@@H]2C[C@@H](OC(=O)N3CCc4ccccc4[C@@H]3CN3CCCCC3)CN2C1=O)OC1CCCC1 [AR00320556, (1S,4R,6S,14S,18R)-1-Piperidin-1R-ylmethyl-3,4-dihydro-1H-isoquinoline-2-carboxylic acid 14-cyclopentyloxycarbonylamino-4-cyclopropanesulfonylaminocarbonyl-2,15-dioxo-3,16-diaza-tricyclo[14.3.0.0^4,6]nonadec-7-en-18-yl ester] |  | < 100 | < 100 |
| O=C(N[C@H]1CCCCC/C=C\[C@@H]2C[C@@]2(C(=O)NS(=O)(=O)C2CC2)NC(=O)[C@@H]2C[C@@H](OC(=O)N3CCc4ccccc4[C@H]3CN3CCCCC3)CN2C1=O)OC1CCCC1 [AR00320557, (1S,4R,6S,14S,18R)-1-Piperidin-1S-ylmethyl-3,4-dihydro-1H-isoquinoline-2-carboxylic acid 14-cyclopentyloxycarbonylamino-4-cyclopropanesulfonylaminocarbonyl-2,15-dioxo-3,16-diaza-tricyclo[14.3.0.0^4,6]nonadec-7-en-18-yl ester] |  | < 100 | < 100 |
| O=C(NC1CCCC1)N[C@H]1CCCCC/C=C\[C@@H]2C[C@@]2(C(=O)NS(=O)(=O)C2CC2)NC(=O)[C@@H]2C[C@@H](OC(=O)N3Cc4ccc(Cl)cc4C3)CN2C1=O [AR00320574, (1S,4R,6S,14S,18R)-5-Chloro-1,3-dihydro-isoindole-2-carboxylic acid 14-(3-cyclopentyl-ureido)-4-cyclopropanesulfonylaminocarbonyl-2,15-dioxo-3,16-diaza-tricyclo[14.3.0.0^4,6]nonadec-7-en-18-yl ester] |  | < 100 | < 100 |
| O=C(NC1CCCC1)N[C@H]1CCCCC/C=C\[C@@H]2C[C@@]2(C(=O)NS(=O)(=O)C2CC2)NC(=O)[C@@H]2C[C@@H](OC(=O)N3Cc4cc(Cl)c(Cl)cc4C3)CN2C1=O [AR00320575, (1S,4R,6S,14S,18R)-5,6-Dichloro-1,3-dihydro-isoindole-2-carboxylic acid 14-(3-cyclopentyl-ureido)-4-cyclopropanesulfonylaminocarbonyl-2,15-dioxo-3,16-diaza-tricyclo[14.3.0.0^4,6]nonadec-7-en-18-yl ester] |  | < 100 | < 1000 |
| COc1ccc2[nH]c3c(c2c1)CCN(C(=O)O[C@@H]1C[C@H]2C(=O)N[C@]4(C(=O)O)C[C@H]4/C=C\CCCCC[C@H](NC(=O)OC(C)(C)C)C(=O)N2C1)C3 [AR00320577, (1S,4R,6S,14S,18R)-14-tert-Butoxycarbonylamino-18-(6-methoxy-1,3,4,9-tetrahydro-b-carboline-2-carbonyloxy)-2,15-dioxo-3,16-diaza-tricyclo[14.3.0.0^4,6]nonadec-7-ene-4-carboxylic acid] |  | < 1000 | < 10000 |
| O=C(N[C@H]1CCCCC/C=C\[C@@H]2C[C@@]2(C(=O)NS(=O)(=O)C2CC2)NC(=O)[C@@H]2C[C@@H](OC(=O)N3CCc4ccccc4C3)CN2C1=O)OCC(F)(F)F [AR00320578, (1S,4R,6S,14S,18R)-3,4-Dihydro-1H-isoquinoline-2-carboxylic acid 4-cyclopropanesulfonylaminocarbonyl-2,15-dioxo-14-(2,2,2-trifluoro-ethoxycarbonylamino)-3,16-diaza-tricyclo[14.3.0.0^4,6]nonadec-7-en-18-yl ester] |  | < 100 | < 100 |
| O=C(N[C@H]1CCCCC/C=C\[C@@H]2C[C@@]2(C(=O)NS(=O)(=O)C2CC2)NC(=O)[C@@H]2C[C@@H](OC(=O)N3CCc4ccccc4C3)CN2C1=O)OCC(F)F [AR00320579, (1S,4R,6S,14S,18R)-3,4-Dihydro-1H-isoquinoline-2-carboxylic acid 4-cyclopropanesulfonylaminocarbonyl-14-(2,2-difluoro-ethoxycarbonylamino)-2,15-dioxo-3,16-diaza-tricyclo[14.3.0.0^4,6]nonadec-7-en-18-yl ester] |  | < 100 | < 100 |
| O=C(N[C@H]1CCCCC/C=C\[C@@H]2C[C@@]2(C(=O)NS(=O)(=O)C2CC2)NC(=O)[C@@H]2C[C@@H](OC(=O)N3CCc4ccccc4C3)CN2C1=O)OC(CF)CF [AR00320580, (1S,4R,6S,14S,18R)-3,4-Dihydro-1H-isoquinoline-2-carboxylic acid 4-cyclopropanesulfonylaminocarbonyl-14-(2-fluoro-1-fluoromethyl-ethoxycarbonylamino)-2,15-dioxo-3,16-diaza-tricyclo[14.3.0.0^4,6]nonadec-7-en-18-yl ester] |  | < 100 | < 100 |
| CC(OC(=O)N[C@H]1CCCCC/C=C\[C@@H]2C[C@@]2(C(=O)NS(=O)(=O)C2CC2)NC(=O)[C@@H]2C[C@@H](OC(=O)N3CCc4ccccc4C3)CN2C1=O)C(F)(F)F (stereo partly drawn) [AR00320581, (1S,4R,6S,14S,18R)-3,4-Dihydro-1H-isoquinoline-2-carboxylic acid 4-cyclopropanesulfonylaminocarbonyl-2,15-dioxo-14-(2,2,2-trifluoro-1-methyl-ethoxycarbonylamino)-3,16-diaza-tricyclo[14.3.0.0^4,6]nonadec-7-en-18-yl ester] |  | < 100 | < 100 |
| CC(C)(OC(=O)N[C@H]1CCCCC/C=C\[C@@H]2C[C@@]2(C(=O)NS(=O)(=O)C2CC2)NC(=O)[C@@H]2C[C@@H](OC(=O)N3CCc4ccccc4C3)CN2C1=O)C(F)(F)F [AR00320582, (1S,4R,6S,14S,18R)-3,4-Dihydro-1H-isoquinoline-2-carboxylic acid 4-cyclopropanesulfonylaminocarbonyl-2,15-dioxo-14-(2,2,2-trifluoro-1,1-dimethyl-ethoxycarbonylamino)-3,16-diaza-tricyclo[14.3.0.0^4,6]nonadec-7-en-18-yl ester] |  | < 100 | < 100 |
| C[C@H]1CN(C(=O)O[C@@H]2C[C@H]3C(=O)N[C@]4(C(=O)NS(=O)(=O)C5CC5)C[C@H]4/C=C\CCCCC[C@H](NC(=O)OC(C)(C)C)C(=O)N3C2)Cc2ccccc21 [AR00333462, (1S,4R,6S,14S,18R)-4R-Methyl-3,4-dihydro-1H-isoquinoline-2-carboxylic acid 14-tert-butoxycarbonylamino-4-cyclopropanesulfonylaminocarbonyl-2,15-dioxo-3,16-diaza-tricyclo[14.3.0.0^4,6]nonadec-7-en-18-yl ester] |  | < 100 | < 100 |
| C[C@@H]1CN(C(=O)O[C@@H]2C[C@H]3C(=O)N[C@]4(C(=O)NS(=O)(=O)C5CC5)C[C@H]4/C=C\CCCCC[C@H](NC(=O)OC(C)(C)C)C(=O)N3C2)Cc2ccccc21 [AR00333463, (1S,4R,6S,14S,18R)-4S-Methyl-3,4-dihydro-1H-isoquinoline-2-carboxylic acid 14-tert-butoxycarbonylamino-4-cyclopropanesulfonylaminocarbonyl-2,15-dioxo-3,16-diaza-tricyclo[14.3.0.0^4,6]nonadec-7-en-18-yl ester] |  | < 100 | < 100 |
| CC(C)S(=O)(=O)NC(=O)[C@@]12C[C@H]1/C=C\CCCCC[C@H](NC(=O)OC(C)(C)C)C(=O)N1C[C@H](OC(=O)N3Cc4ccccc4C3)C[C@H]1C(=O)N2 [AR00333801, (1S,4R,6S,14S,18R)-1,3-Dihydro-isoindole-2-carboxylic acid 14-tert-butoxycarbonylamino-2,15-dioxo-4-(propane-2-sulfonylaminocarbonyl)-3,16-diaza-tricyclo[14.3.0.0^4,6]nonadec-7-en-18-yl ester] |  | < 100 | < 100 |
| CC(C)(C)OC(=O)N[C@H]1CCCCC/C=C\[C@@H]2C[C@@]2(C(=O)NS(=O)(=O)c2ccccc2)NC(=O)[C@@H]2C[C@@H](OC(=O)N3Cc4ccccc4C3)CN2C1=O [AR00333802, (1S,4R,6S,14S,18R)-1,3-Dihydro-isoindole-2-carboxylic acid 4-benzenesulfonylaminocarbonyl-14-tert-butoxycarbonylamino-2,15-dioxo-3,16-diaza-tricyclo[14.3.0.0^4,6]nonadec-7-en-18-yl ester] |  | < 100 | < 100 |
| CC(C)(C)OC(=O)N[C@H]1CCCCC/C=C\[C@@H]2C[C@@]2(C(=O)NS(C)(=O)=O)NC(=O)[C@@H]2C[C@@H](OC(=O)N3Cc4ccccc4C3)CN2C1=O [AR00333803, (1S,4R,6S,14S,18R)-1,3-Dihydro-isoindole-2-carboxylic acid 14-tert-butoxycarbonylamino-4-methanesulfonylaminocarbonyl-2,15-dioxo-3,16-diaza-tricyclo[14.3.0.0^4,6]nonadec-7-en-18-yl ester] |  | < 100 | < 1000 |
